Literature values, collected in US20160069160A1, “TREATMENT OF MICROBIAL-INFLUENCED CORROSION” (TRICAN WELL SERVICE LTD., priority 2014, published 2016).

Test system: microbes

| Molecule | efficacy at low pH (below pH 5) | concentration required to be effective at pH 7 relative to pH 9 (pH 7 vs pH 9) [times higher] | effect of pH on microbial control |
| --- | --- | --- | --- |
| O=CCCCC=O [glutaraldehyde] | significantly reduced | 4 to 6 |  |
| tetrakis(hydroxymethyl)phosphonium sulfate [THPS] |  |  | unaffected by pH |
